Laboratory results published in PubChem BioAssay (NCI).
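Values below derive from 48-hour exposures of cells grown in 96-well plates, with endpoints linearly interpolated between the two concentrations bracketing the appropriate inhibition level. The concentration for full growth arrest is given as TGI.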

Legend:
Experiment in all cases: NCI anticancer screen, dose series, 48 h
SF-539 CNS = system: SF-539 CNS
A498 renal = system: A498 renal
CCRF-CEM leukemia = system: CCRF-CEM leukemia
IGROV1 ovarian = system: IGROV1 ovarian
HOP-92 NSCLC = system: HOP-92 NSCLC
MALME-3M melanoma = system: MALME-3M melanoma
SW-620 colon = system: SW-620 colon
DU-145 prostate = system: DU-145 prostate
HCT-15 colon = system: HCT-15 colon
MCF7 breast = system: MCF7 breast
MDA-N = system: MDA-N
U251 CNS = system: U251 CNS
OVCAR-4 ovarian = system: OVCAR-4 ovarian
RPMI-8226 leukemia = system: RPMI-8226 leukemia
BT-549 breast = system: BT-549 breast
NCI-H460 lung = system: NCI-H460 lung
HOP-62 NSCLC = system: HOP-62 NSCLC
NCI/ADR-RES ovarian = system: NCI/ADR-RES ovarian
UACC-257 melanoma = system: UACC-257 melanoma
SNB-75 CNS = system: SNB-75 CNS
CAKI-1 renal = system: CAKI-1 renal
A549 NSCLC = system: A549 NSCLC
UACC-62 melanoma = system: UACC-62 melanoma
M14 melanoma = system: M14 melanoma
KM12 colon = system: KM12 colon
786-0 renal = system: 786-0 renal
HS 578T breast = system: HS 578T breast
SF-268 CNS = system: SF-268 CNS
K-562 leukemia = system: K-562 leukemia
COLO 205 colon = system: COLO 205 colon
HCC-2998 colon = system: HCC-2998 colon
MDA-MB-231 breast = system: MDA-MB-231 breast
MOLT-4 leukemia = system: MOLT-4 leukemia
SR leukemia = system: SR leukemia
SN12C renal = system: SN12C renal
NCI-H23 lung = system: NCI-H23 lung
NCI-H226 lung = system: NCI-H226 lung
SK-OV-3 ovarian = system: SK-OV-3 ovarian
T-47D breast = system: T-47D breast
UO-31 renal = system: UO-31 renal
LOX IMVI melanoma = system: LOX IMVI melanoma
HL-60(TB) leukemia = system: HL-60(TB) leukemia
SK-MEL-5 melanoma = system: SK-MEL-5 melanoma
ACHN renal = system: ACHN renal
RXF 393 renal = system: RXF 393 renal
TK-10 renal = system: TK-10 renal
SNB-19 CNS = system: SNB-19 CNS
OVCAR-5 ovarian = system: OVCAR-5 ovarian
EKVX NSCLC = system: EKVX NSCLC
PC-3 prostate = system: PC-3 prostate
SF-295 CNS = system: SF-295 CNS
SK-MEL-28 melanoma = system: SK-MEL-28 melanoma
HT29 colon = system: HT29 colon
NCI-H522 lung = system: NCI-H522 lung
HCT-116 colon = system: HCT-116 colon
OVCAR-3 ovarian = system: OVCAR-3 ovarian
SK-MEL-2 melanoma = system: SK-MEL-2 melanoma
OVCAR-8 ovarian = system: OVCAR-8 ovarian
MDA-MB-435 = system: MDA-MB-435

Measured: TGI

COc1ccc(/C(C)=N/NC(=O)c2ccncc2)cc1OC
> 10 µM: SF-539 CNS | A498 renal | CCRF-CEM leukemia | IGROV1 ovarian | HOP-92 NSCLC | MALME-3M melanoma | SW-620 colon | DU-145 prostate | HCT-15 colon | MCF7 breast | MDA-N | U251 CNS | OVCAR-4 ovarian | RPMI-8226 leukemia | BT-549 breast | NCI-H460 lung | HOP-62 NSCLC | NCI/ADR-RES ovarian | UACC-257 melanoma | SNB-75 CNS | CAKI-1 renal | A549 NSCLC | UACC-62 melanoma | M14 melanoma | KM12 colon | 786-0 renal | HS 578T breast | SF-268 CNS | K-562 leukemia | COLO 205 colon | HCC-2998 colon | MDA-MB-231 breast | MOLT-4 leukemia | SR leukemia | SN12C renal | NCI-H23 lung | NCI-H226 lung | SK-OV-3 ovarian | T-47D breast | UO-31 renal | LOX IMVI melanoma | HL-60(TB) leukemia | SK-MEL-5 melanoma

CC(=O)OCC1OC(n2c(C)c(C(C)=O)c(-c3cccc4ccccc34)c(C#N)c2=S)C(OC(C)=O)C(OC(C)=O)C1OC(C)=O (configuration not stated)
> 100000 nM: NCI-H522 lung
0.249 µM: UO-31 renal
> 100 µM: ACHN renal | RXF 393 renal | TK-10 renal | SF-539 CNS | A498 renal | CCRF-CEM leukemia | IGROV1 ovarian | HOP-92 NSCLC | MALME-3M melanoma | SW-620 colon | DU-145 prostate | SNB-19 CNS | HCT-15 colon | MCF7 breast | MDA-N | U251 CNS | OVCAR-4 ovarian | NCI-H460 lung | HOP-62 NSCLC | NCI/ADR-RES ovarian | UACC-257 melanoma | SNB-75 CNS | CAKI-1 renal | A549 NSCLC | UACC-62 melanoma | OVCAR-5 ovarian | M14 melanoma | EKVX NSCLC | KM12 colon | PC-3 prostate | 786-0 renal | SF-295 CNS | SF-268 CNS | SK-MEL-28 melanoma | K-562 leukemia | COLO 205 colon | HT29 colon | HCC-2998 colon | MDA-MB-231 breast | MOLT-4 leukemia | SR leukemia | HCT-116 colon | SN12C renal | OVCAR-3 ovarian | NCI-H23 lung | NCI-H226 lung | SK-MEL-2 melanoma | OVCAR-8 ovarian | SK-OV-3 ovarian | T-47D breast | LOX IMVI melanoma | HL-60(TB) leukemia | SK-MEL-5 melanoma | MDA-MB-435

CC1=NN(C(=O)c2ccccc2O)C(c2ccccc2Cl)C1C(=O)Nc1ccccc1 (configuration not stated)
0.245 µM: CCRF-CEM leukemia
> 100 µM: ACHN renal | RXF 393 renal | TK-10 renal | HOP-92 NSCLC | SW-620 colon | SNB-19 CNS | HCT-15 colon | MCF7 breast | MDA-N | U251 CNS | OVCAR-4 ovarian | HOP-62 NSCLC | UACC-257 melanoma | CAKI-1 renal | A549 NSCLC | EKVX NSCLC | KM12 colon | PC-3 prostate | SF-295 CNS | HS 578T breast | SK-MEL-28 melanoma | K-562 leukemia | COLO 205 colon | HT29 colon | HCC-2998 colon | MDA-MB-231 breast | SR leukemia | NCI-H23 lung | SK-MEL-2 melanoma | OVCAR-8 ovarian | SK-OV-3 ovarian | T-47D breast | MDA-MB-435
> 43.5 µM: DU-145 prostate
> 32.4 µM: IGROV1 ovarian
7.24 µM: HL-60(TB) leukemia
33.1 µM: M14 melanoma
> 49.5 µM: NCI/ADR-RES ovarian
> 53.1 µM: NCI-H460 lung
30.5 µM: SK-MEL-5 melanoma
30.8 µM: SF-268 CNS
5.68 µM: SF-539 CNS
8.02 µM: NCI-H226 lung
692 nM: NCI-H522 lung
> 43.7 µM: OVCAR-5 ovarian
> 44.8 µM: SN12C renal
> 36.5 µM: LOX IMVI melanoma
> 51.2 µM: UACC-62 melanoma
> 85.7 µM: MOLT-4 leukemia
> 44.9 µM: 786-0 renal
> 90.8 µM: RPMI-8226 leukemia
> 51.3 µM: OVCAR-3 ovarian
51.9 µM: MALME-3M melanoma

O=C(Cc1ccccc1)NNc1nc(NNC(=O)c2ccncc2)nc(Nc2ccc(Cl)cc2)n1
> 10 µM: TK-10 renal | SF-539 CNS | CCRF-CEM leukemia | IGROV1 ovarian | HOP-92 NSCLC | MALME-3M melanoma | SW-620 colon | DU-145 prostate | HCT-15 colon | MCF7 breast | MDA-N | U251 CNS | OVCAR-4 ovarian | RPMI-8226 leukemia | BT-549 breast | HOP-62 NSCLC | NCI/ADR-RES ovarian | UACC-257 melanoma | SNB-75 CNS | CAKI-1 renal | A549 NSCLC | UACC-62 melanoma | M14 melanoma | EKVX NSCLC | KM12 colon | 786-0 renal | HS 578T breast | SF-268 CNS | SK-MEL-28 melanoma | K-562 leukemia | COLO 205 colon | HCC-2998 colon | MDA-MB-231 breast | MOLT-4 leukemia | SR leukemia | SN12C renal | NCI-H23 lung | OVCAR-8 ovarian | SK-OV-3 ovarian | T-47D breast | UO-31 renal | LOX IMVI melanoma | HL-60(TB) leukemia | SK-MEL-5 melanoma
